Data taken from patent US10329262B2, “Quinazolinone antibiotics” (priority 2013, dated 2019).

What was measured:
PBP2a = target: T1, PBP2a (Staphylococcus aureus, UniProt Q53707); assay: Bocillin FL competition assay, purified recombinant PBP2a; assay type: binding, S. aureus
T1 construct: PBP2a was purified using a previously described protocol (Fuda et al., J. Biol. Chem. 279, 40802-40806 (2004)); made in house
From the text: We next explored if it would inhibit purified recombinant PBP2a by a competition assay with Bocillin FL, a fluorescent penicillin reporter reagent. We purified PBP2a for this study using a previously described protocol from the laboratory of Prof. Mobashery (Fuda et al., J. Biol. Chem. 2004, 279, 40802-40806). This inhibition assay for PBPs has the limitation in that Bocillin FL is a covalent modifier of the active site of PBPs and the equilibrium is inexorably in favor of the irreversible acylation of the active-site serine by the reporter molecule. As such, the degree of inhibition by the non-covalent inhibitor (e.g., 2) will be underestimated.
This inhibition assay for PBPs has the limitation in that Bocillin FL is a covalent modifier of the active site of PBPs and the equilibrium is inexorably in favor of the irreversible acylation of the active-site serine by the reporter molecule. As such, the degree of inhibition by the non-covalent inhibitor (e.g., 2) will be underestimated. This is what was seen.
The Bocillin FL competition assays were performed with purified PBP2a and membrane extracts. […] Samples were centrifuged, loaded to SDS-PAGE, the gels were visualized immediately using a Storm840 Scanner, and fluorescence was quantified using ImageQuant software. IC50 values were calculated using GraphPad prism 5, using the previously published equation.

PBP2a allosteric site = target: T2, PBP2a allosteric site (Staphylococcus aureus, UniProt Q53707); assay: Intrinsic fluorescence quenching of oxacillin-acylated PBP2a; assay type: binding, S. aureus
T2 construct: made in house
Procedure: FIG. 11. Binding of quinazolinone 2 to PBP2a allosteric site. […] (a) The change in the maximum fluorescence intensity was calculated as the difference compared to the intensity in the absence of compound. Any dilution effect was subtracted out using a buffer titration control. […] A nonlinear regression was used to fit the data, with an R^2 of 0.9997. (b) Emission scans of PBP2a intrinsic fluorescence with excitation at 280 nm. Antibiotic 2 was titrated in to give the final concentrations shown and 3 scans (1 min cycles) were averaged for each titration.
Therefore, we have evidence for binding of antibiotic 2 to the allosteric site (X-ray) and to the active site (kinetic assays for competitive inhibition and X-ray altered conformations for the active-site residues) of PBP2a). Binding of antibiotic 2 at the allosteric site induces conformational changes at the active site (FIG. 7B). All of these movements serve to double the area and the volume of the active site.
Therefore, we have evidence for binding of the antibiotic 2 to the allosteric site (X-ray) and to the active site (kinetic assays for competitive inhibition and X-ray altered conformations for the active-site residues) of PBP2a. Binding of antibiotic 2 at the allosteric site induces conformational changes at the active site (FIG. 7b). All of these movements serve to double the area and volume of the active site.

[1] = tested on: S. haemolyticus ATCC 29970; assay: MIC, CLSI broth microdilution, S. haemolyticus ATCC 29970; assay type: cell-based
Procedure: (§1) MICs were evaluated following the CLSI microdilution method in BBL™ Mueller-Hinton II broth (Wikler et al., Clinical Laboratory Standards Institute Document M7-A7, 29 (2009)). Briefly, two-fold serial dilutions of compound were prepared in triplicate in 96-well plates and inoculated with 5×10^5 cfu/mL of the bacterial suspension. Plates were incubated at 37° C. for 16-20 hours.

[2] = Metabolic stability in human S9; assay type: in vitro ADME; details: human S9, 2 μM
Procedure: Aliquots were taken at 0, 5, 10, 20, 30, 40, and 60 min, and mixed with two volumes of acetonitrile containing internal standard. The precipitated protein was centrifuged at 20,000 g for 15 min, and the supernatant was analyzed by reversed-phase UPLC.

S. aureus VRS1 = assay: MIC, CLSI broth microdilution, S. aureus VRS1; assay type: cell-based, Staphylococcus aureus
Procedure: as §1

[3] = Plasma protein binding, rapid equilibrium dialysis, human; assay type: in vitro ADME; details: humans, 10 μM, 6 h dialysis
Procedure: Aliquots from both chambers were quenched with 1:2 v/v acetonitrile containing an internal standard. The samples were concentrated to dryness on a miVac concentrator and the residue resuspended in 50:50 acetonitrile/water. Samples were analyzed by reverse-phase ultraperformance liquid chromatography (UPLC) with UV/Vis detection. Plasma protein binding of quinazolinone 2 was 98.0±0.04% in mice and 96.5±0.70% in humans.

[4] = tested on: S. epidermidis ATCC 35547; assay: MIC, CLSI broth microdilution, S. epidermidis ATCC 35547; assay type: cell-based
Procedure: as §1

Plasma stability = assay type: in vitro ADME; details: mouse, 37° C.
Procedure: Compound 2 (20 μM) was incubated in blank mouse plasma at 37° C. and aliquots were taken at specific time points and quenched with two volumes of acetonitrile containing internal standard. Samples were centrifuged and analyzed by reverse-phase UPLC.

T1 sequence (Q53707 entry or part of it): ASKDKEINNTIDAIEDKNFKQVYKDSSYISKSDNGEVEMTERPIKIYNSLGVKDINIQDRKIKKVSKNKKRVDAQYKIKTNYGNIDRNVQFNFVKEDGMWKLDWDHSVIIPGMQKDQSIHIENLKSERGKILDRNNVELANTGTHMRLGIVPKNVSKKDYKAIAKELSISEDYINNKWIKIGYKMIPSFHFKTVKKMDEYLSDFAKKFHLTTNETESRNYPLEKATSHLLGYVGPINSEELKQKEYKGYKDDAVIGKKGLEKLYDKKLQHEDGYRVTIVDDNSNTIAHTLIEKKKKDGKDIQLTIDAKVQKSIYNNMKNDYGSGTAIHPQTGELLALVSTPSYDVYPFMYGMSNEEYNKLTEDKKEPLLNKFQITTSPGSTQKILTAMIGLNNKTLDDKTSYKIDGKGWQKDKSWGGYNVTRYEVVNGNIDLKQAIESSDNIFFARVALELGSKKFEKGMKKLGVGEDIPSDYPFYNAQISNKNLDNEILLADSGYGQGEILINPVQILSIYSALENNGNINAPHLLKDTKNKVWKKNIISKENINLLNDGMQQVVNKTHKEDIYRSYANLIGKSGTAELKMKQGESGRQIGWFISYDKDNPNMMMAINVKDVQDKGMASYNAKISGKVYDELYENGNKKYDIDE
T2 sequence (Q53707 entry or part of it): as above

Compound `N#Cc1ccc(/C=C/c2nc3ccccc3c(=O)n2-c2cccc(C(=O)O)c2)cc1.[Na]` [Compound 2, Sodium (E)-3-(3-carboxyphenyl)-2-(4-cyanostyryl)quinazolin-4(3H)-one] has an IC50 (PBP2a) of 336 µM, a Kd (PBP2a allosteric site) of 16.3 µM and an MIC ([1]; Staphylococcus haemolyticus, ATCC29970) of 1 µg/mL. The In vitro AB activity (MIC) ([1]; Table 2.1, S. haemolyticus ATCC 29970) was 1 µg/mL, the “Compound remaining after 1-h incubation” value [2] was 100% and the MIC (S. aureus VRS1; Staphylococcus aureus, VRS1) was 16 µg/mL. It also gave an In vitro AB activity (MIC) (S. aureus VRS1; Table 2.1, S. aureus VRS1) of 16 µg/mL, a Plasma protein binding [3] of 96.5±0.70% and an MIC ([4]; Staphylococcus epidermidis, ATCC35547) of 1 µg/mL. For the same compound, the In vitro AB activity (MIC) ([4]; Table 2.1, S. epidermidis ATCC 35547) was 1 µg/mL and the half-life at 20 μM (Plasma stability) was 141 h.
